Experimental data published in US20240197652A1, “KETAMINE IN THE TREATMENT OF […]” (Awakn LS Europe Holdings Limited, priority 2021, published 2024).

Experiments:
Format in all cases: in vivo, human
total plasma ghrelin = assay: Total plasma ghrelin, Example 8; details: for total plasma ghrelin at 90 minutes post-lozenge / % change in total ghrelin: 100 mg racemic ketamine sublingual; for total plasma ghrelin, pre-administration: baseline before 100 mg racemic ketamine sublingual; for % change in total ghrelin: pre-administration to 90 minutes post-lozenge
Experimental: (§1) Blood samples were collected from all three subjects. Blood samples were analysed to determine ketamine and ketamine metabolite levels, as well as the hormones leptin and ghrelin. Self-report measures were conducted.
(§2) The treatment protocol commenced in substantially the same way as disclosed in the ketamine in subjects with gambling disorder study completed in EXAMPLE 7, with the exceptions outlined as follows: No behavioural tasks were completed. Blood samples collected every 10 minutes from the time of administration to 90 minutes post-administration were additionally analysed for leptin and ghrelin. Self-report measures included the Binge Eating Scale, the Adult Attachment Interview (AAI), a 20 question interview about the subject's recollections of their childhood (Sykes and Turner, 2015); the Childhood Trauma Questionnaire; the Morningness-Eveningness Questionnaire (MEQ), a 19-item questionnaire designed to assess when a respondent prefers to wake up or start sleep (American Thoracic Society, 2022); the DSM-5 Binge Eating Disorder diagnostic criteria; and the SPSRQ.
(§3) Changes in ghrelin and leptin were measured. Ghrelin stimulates appetite and food intake, increases fat deposition, and releases growth hormone. Obese binge eating disorder subjects often have reduced plasma ghrelin, possibly due to the downregulation of ghrelin from excess eating or body fat (Atalayer et al. 2013). Leptin forms a negative feedback loop between fat cells and the hypothalamus, wherein leptin secretion signals the hypothalamus to inhibit food intake and increase energy expenditure. Increased leptin may aid in reducing appetite cravings associated with binge eating disorder (Obradovic et al. 2021).

total plasma leptin = assay: Total plasma leptin, Example 8; details: for total plasma leptin at 90 minutes post-lozenge / % change in total leptin: 100 mg racemic ketamine sublingual; for total plasma leptin, pre-administration: baseline before 100 mg racemic ketamine sublingual; for % change in total leptin: pre-administration to 90 minutes post-lozenge
Experimental: as §1, §2, §3

[1] = test system: subjects with binge eating disorder; assay: Binge Eating Scale (BES), Example 8; details: for Binge Eating Scale score at 2-week follow up / BES classification at two-week follow up: after 100 mg racemic ketamine sublingual; for BES classification, pre-administration / Binge Eating Scale score, pre-administration: baseline before 100 mg racemic ketamine sublingual; for % change in Binge Eating Scale: pre-administration to 2-week follow up, 100 mg racemic ketamine sublingual
Description: Binge eating disorder may be characterised as being mild, moderate, and severe. The severity of binge eating disorder may be determined by the Binge Eating Scale (BES), wherein a score below 17 indicates no binge eating disorder, a score of between 18-20 indicates mild binge eating disorder, a score of between 21-27 indicates moderate binge eating disorder, and a score above 27 indicates severe binge eating disorder (Grupski et al., 2013), or based on ordinary skill. In embodiments, a patient may have binge eating disorder characterised as being mild. In other embodiments, a patient may have binge eating disorder characterised as being moderate. In other embodiments, a patient may have binge eating disorder characterised as being severe.
A study was completed on the use of ketamine to treat binge eating disorder. Subjects were assessed for binge eating disorder using the Binge Eating Scale (BES), and included if they received a BES score greater than 15. Three subjects in total were included (BE1-BE3, and interchangeably on FIGS. 5 and 6 as BED1-BED3, these being the same subjects). All three were administered sublingual lozenges comprising 100 mg of racemic ketamine.
as §2

subjects with CSBD = assay: Hours of pornography viewed per day, Example 10; details: for hours of pornography watched daily at 2-week follow up: after 100 mg racemic ketamine sublingual; for hours of pornography watched daily, pre-administration: baseline before 100 mg racemic ketamine sublingual; for % change in hours of pornography viewed: pre-administration to 2-week follow up, 100 mg racemic ketamine sublingual
Experimental: A study was completed on the use of ketamine to treat CSBD. Subjects were assessed for CSBD using the Problematic Pornography Use Scale (PPUS) and were included if they received an PPUS score greater than 3. Three subjects in total were included (CSB1-CSB3). All three were administered sublingual lozenges comprising 100 mg of racemic ketamine.
The treatment protocol commenced in the same way as disclosed in the ketamine in subjects with gambling disorder study completed in EXAMPLE 7, with the exceptions outlined as follows: No behavioural tasks were completed. Self-report measures completed during EXAMPLE 10 included the Emotional Intimacy Measure, the Childhood Trauma Questionnaire, the Generalised Anxiety Disorder-7 (GAD-7), the Morningness-Eveningness Questionnaire (MEQ), and the Problematic Pornography Questionnaire (PPQ), the Acceptance and Action Questionnaire, and the Psychological and Interpersonal Relationship Scales (PAIRS).

[2] = test system: subjects with gambling disorder; assay: Cue reactivity task: picture pleasure rating and gambling desire rating, Example 7
[3] = test system: subjects with binge eating disorder; assay: Adverse events, KSET, Example 8; details: three binge eating disorder subjects; 100 mg racemic ketamine sublingual
[4] = test system: subjects with gaming disorder; assay: Craving for Gaming Questionnaire (CGQ), Example 9; details: for CGQ score at 2-week follow up: after 100 mg racemic ketamine sublingual; for CGQ score, pre-administration: baseline before 100 mg racemic ketamine sublingual; for % change in Craving for Gaming Questionnaire: pre-administration to 2-week follow up, 100 mg racemic ketamine sublingual
Experimental: A study was completed on ketamine to treat gaming disorder. Subjects were assessed for gaming disorder using the Internet Gaming Disorder Scale (IGDS) and were included if they received an IGDS score greater than 3. Three subjects in total were included (IG1-IG3). All three were administered sublingual lozenges comprising 100 mg of racemic ketamine.
The treatment protocol commenced in the same manner as disclosed in the ketamine in subjects with gambling disorder study completed in EXAMPLE 7, with the exceptions as follow: No behavioural tasks were completed. Self-report measures completed during EXAMPLE 9 included Social Phobia Inventory (SPIN), the Craving for Gaming Questionnaire (CGQ), and Generalised Anxiety Disorder-7 (GAD-7) the Sensitivity to Reward and Punishment Scale, and the Childhood Trauma Questionnaire, the Morningness-Eveningness Questionnaire (MEQ).

[5] = baseline before 100 mg racemic ketamine sublingual
[6] = one-week follow up after 100 mg racemic ketamine sublingual
[7] = two-week follow up after 100 mg racemic ketamine sublingual

CNC1(c2ccccc2Cl)CCCCC1=O (racemic) [ketamine, 2-(2-chlorophenyl)-2-(methylamino)-cyclohexanone]
total plasma ghrelin at 90 minutes post-lozenge (total plasma ghrelin; subject BE1): 310 pg/mL | total plasma ghrelin, pre-administration (total plasma ghrelin; subject BE1): 254 pg/mL | % change in total ghrelin (total plasma ghrelin; subject BE1): +22.05% | total plasma ghrelin at 90 minutes post-lozenge (total plasma ghrelin; subject BE2): 231 pg/mL | total plasma ghrelin, pre-administration (total plasma ghrelin; subject BE2): 198 pg/mL | % change in total ghrelin (total plasma ghrelin; subject BE2): +16.67% | total plasma ghrelin at 90 minutes post-lozenge (total plasma ghrelin; subject BE3): 274 pg/mL | total plasma ghrelin, pre-administration (total plasma ghrelin; subject BE3): 291 pg/mL | % change in total ghrelin (total plasma ghrelin; subject BE3): −5.84% | total plasma leptin at 90 minutes post-lozenge (total plasma leptin; subject BE1): 9.11 ng/mL | total plasma leptin, pre-administration (total plasma leptin; subject BE1): 7.10 ng/mL | % change in total leptin (total plasma leptin; subject BE1): +28.31% | total plasma leptin at 90 minutes post-lozenge (total plasma leptin; subject BE2): 27.98 ng/mL | total plasma leptin, pre-administration (total plasma leptin; subject BE2): 21.88 ng/mL | % change in total leptin (total plasma leptin; subject BE2): +27.88% | total plasma leptin at 90 minutes post-lozenge (total plasma leptin; subject BE3): 11.23 ng/mL | total plasma leptin, pre-administration (total plasma leptin; subject BE3): 12.36 ng/mL | % change in total leptin (total plasma leptin; subject BE3): −9.14% | Binge Eating Scale score at 2-week follow up ([1]; subject BE1): 24 | BES classification, pre-administration ([1]; subject BE1): moderate binge eating disorder (a score of between 21-27 indicates moderate binge eating disorder) | Binge Eating Scale score, pre-administration ([1]; subject BE1): 26 | BES classification at two-week follow up ([1]; subject BE1, moderate binge eating disorder pre-administration): remained so | % change in Binge Eating Scale ([1]; subject BE1): −7.69% | Binge Eating Scale score at 2-week follow up ([1]; subject BE2): 35 | Binge Eating Scale score, pre-administration ([1]; subject BE2): 32 | % change in Binge Eating Scale ([1]; subject BE2): +9.38% | Binge Eating Scale score at 2-week follow up ([1]; subject BE3): 28 | BES classification, pre-administration ([1]; subject BE3): severe binge eating disorder (a score above 27 indicates severe binge eating disorder) | Binge Eating Scale score, pre-administration ([1]; subject BE3): 42 | % change in Binge Eating Scale ([1]; subject BE3): −33.33% | BES classification at two-week follow up ([1]; subject BE3, severe binge eating disorder pre-administration): one point away from the moderate classification | hours of pornography watched daily at 2-week follow up (subjects with CSBD; subject CSB1): 0.5 h | hours of pornography watched daily, pre-administration (subjects with CSBD; subject CSB1): 2 h | % change in hours of pornography viewed (subjects with CSBD; subject CSB1): −75% | hours of pornography watched daily at 2-week follow up (subjects with CSBD; subject CSB2): 3 h | hours of pornography watched daily, pre-administration (subjects with CSBD; subject CSB2): 4 h | % change in hours of pornography viewed (subjects with CSBD; subject CSB2): −25% | hours of pornography watched daily at 2-week follow up (subjects with CSBD; subject CSB3): 1 h | hours of pornography watched daily, pre-administration (subjects with CSBD; subject CSB3): 1 h | gambling desire rating, mean [2, 5]: 2.25 | picture pleasure rating, mean [2, 5]: 3.25 | gambling desire rating, mean [2, 6]: −0.25 | picture pleasure rating, mean [2, 6]: 1.33 | gambling desire rating, mean [2, 7]: −0.25 | picture pleasure rating, mean [2, 7]: −0.83 | course of adverse events [3]: All adverse events were transient, and resolved two hours post-lozenge | overall tolerability [3]: well-tolerated, with no drop-outs | unexpected adverse reactions (KSET) [3]: no unexpected adverse reactions were observed | CGQ score at 2-week follow up ([4]; subject IG1): 28 | CGQ score, pre-administration ([4]; subject IG1): 30 | % change in Craving for Gaming Questionnaire ([4]; subject IG1): −6.67% | CGQ score at 2-week follow up ([4]; subject IG2): 15 | CGQ score, pre-administration ([4]; subject IG2): 31 | % change in Craving for Gaming Questionnaire ([4]; subject IG2): −51.61% | CGQ score at 2-week follow up ([4]; subject IG3): 21 | CGQ score, pre-administration ([4]; subject IG3): 45 | % change in Craving for Gaming Questionnaire ([4]; subject IG3): −53.33%
